Results on 19 compounds are retold here after US5773414A, “Endothelin antagonists” (Warner-Lambert Company, priority 1997, dated 1998).

Structures are written as SMILES. Where a name gives a salt, the structure may show the parent alone. Numbered stars: 1 amine (or outer) side, 2 acyl side, 3 side chain; on linkers, the order of the positions; unused ones are H or OH. Square brackets hold non-standard residues; d marks the D form. Peptide text beside a SMILES is read from it. * marks the point of attachment. X3 = Cc1c(C)c(C)c(C[C@@H](N[*:1])C(=O)[*:2])c(C)c1C; Acetyl(1-adamantyl) = O=C(CC12CC3CC(CC(C3)C1)C2)*; dDip = N[C@@H](C(=O)O)C(c1ccccc1)c1ccccc1; Acetyl(3-pyridyl) = O=C(Cc1cccnc1)*; Orn = NCCC[C@H](N)C(=O)O; Tfa = O=C(C(F)(F)F)* Where only a bound is given, the exact number is not on record here.

Test [1] concerns the target T1, ETB (Rattus norvegicus, UniProt P21451).
T1 construct: thaw one aliquot of frozen rat cerebellar membranes; from tissue; host or cells: rat cerebellar membranes
T1 sequence (P21451 27-442): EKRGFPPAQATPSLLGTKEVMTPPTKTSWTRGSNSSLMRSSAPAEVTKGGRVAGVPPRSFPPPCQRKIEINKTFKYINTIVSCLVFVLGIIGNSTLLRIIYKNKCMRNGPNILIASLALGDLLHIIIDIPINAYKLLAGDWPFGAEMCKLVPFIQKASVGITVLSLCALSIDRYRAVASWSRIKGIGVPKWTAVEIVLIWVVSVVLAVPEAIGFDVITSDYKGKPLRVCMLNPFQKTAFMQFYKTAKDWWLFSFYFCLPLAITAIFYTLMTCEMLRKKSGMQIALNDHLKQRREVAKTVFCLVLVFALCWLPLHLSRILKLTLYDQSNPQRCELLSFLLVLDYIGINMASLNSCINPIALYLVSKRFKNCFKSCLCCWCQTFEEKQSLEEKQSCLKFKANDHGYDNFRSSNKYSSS
Kind of test: Endothelin Receptor Binding Assay-B (ETB), [125I]-ET-1 binding in rat cerebellar membranes. The following applies: Table IIa; for IC50: rat cerebellar membranes, read-out: Binding Assay IC50 at Receptor Subtypes ETB. Here is the method: The tissue is made up of 20 mM tris(hydroxymethyl)aminomethane hydrochloride (Trizma) buffer, 2 mM ethylenediaminetetraacetate, 100 μM phenylmethylsulfonyl fluoride.
First, thaw one aliquot of frozen rat cerebellar membranes (2 mg protein in 0.5 mL). Next, add 0.5 mL membrane aliquot to 4.5 mL cold tissue buffer, polytron at 7,500 revolutions per minute for 10 seconds. Finally, dilute tissue suspension 1/100 (0.1 mL suspension+9.9 mL tissue buffer), polytron again, and place ice.
Mix in 150 μL of tissue to each tube, vortex briefly, then tap to force all liquids to bottom (total assay volume=250 μL). Then place the tubes in a 37° C. water bath for 2 hours.
Add 2.5 mL cold water buffer (50 mM Trizma buffer) to each tube, filter, and then wash tube with additional 2.5 mL wash buffer and add to filter. Finally, wash filters with an additional 2.5 mL of cold wash buffer.
Count filters for radioactivity in gamma counter.

Test [2] addresses T2, ETA (Oryctolagus cuniculus, UniProt A5A8K3).
T2 construct: The cells used were rabbit renal artery vascular smooth muscle cells; endogenous in cells; host or cells: rabbit renal artery vascular smooth muscle cells
T2 sequence (A5A8K3 21-427): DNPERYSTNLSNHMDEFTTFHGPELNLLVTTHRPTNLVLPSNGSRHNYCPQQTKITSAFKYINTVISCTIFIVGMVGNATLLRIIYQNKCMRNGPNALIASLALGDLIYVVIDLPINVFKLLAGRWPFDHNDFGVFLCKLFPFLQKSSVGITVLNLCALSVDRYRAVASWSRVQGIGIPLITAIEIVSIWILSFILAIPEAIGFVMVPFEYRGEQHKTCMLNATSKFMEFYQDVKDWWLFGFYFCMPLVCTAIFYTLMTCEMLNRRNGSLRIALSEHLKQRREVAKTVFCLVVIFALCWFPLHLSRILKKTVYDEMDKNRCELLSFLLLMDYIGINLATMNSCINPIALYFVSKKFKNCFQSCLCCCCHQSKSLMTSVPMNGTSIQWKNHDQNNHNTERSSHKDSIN
The experiment in a line: Endothelin Receptor Binding Assay-A (ETA), intact cell binding of [125I]-ET-1. More on the design: species or system rabbit. Conditions: Table IIa; for IC50: rabbit renal artery vascular smooth muscle cells, read-out: Binding Assay IC50 at Receptor Subtypes ETA. Here is the method:
The cells used were rabbit renal artery vascular smooth muscle cells grown in a 48-well dish (1 cm^2) (confluent cells).
The growth media was Dulbeccos Modified Eagles/Ham's F12 which contained 10 fetal bovine serum and antibiotics (penicillin/streptomycin/fungizone).
Second, remove the assay buffers, place the dish on ice, and add 150 μL of cold assay buffer described above to each well. […] Next, place dish in a 37° C. water bath for about 2 hours and gently agitate the dish every 15 minutes. Discard the radioactive incubation mixture in the sink and wash wells 3 times with 1 mL of cold phosphate buffered saline. Last, add […] of 0.25M sodium hydroxide, agitate for 1 hour on rotator, and then transfer the sodium hydroxide extract to gamma counting tubes and count the radioactivity.

By IC50 is commonly meant the concentration at which inhibition is half-maximal. Regarding `CC[C@H](C)[C@H](NC(=O)[C@H](Cc1ccc(O)cc1)NC(=O)[C@H](N)C(c1ccccc1)c1ccccc1)C(=O)N[C@H](C(=O)N[C@@H](Cc1c[nH]c2ccccc12)C(=O)O)[C@@H](C)CC` [Example 95, D--Dip--Tyr--Ile--Ile--Trp] (H-[dDip]YIIW-OH), the IC50 turned out to be 350 nM in test [1] and 8000 nM in test [2].

Turning to `CC[C@H](C)[C@H](NC(=O)[C@H](CC(=O)O)NC(=O)[C@H](CC(C)C)NC(=O)[C@H](NC(C)=O)C(c1ccccc1)c1ccccc1)C(=O)N[C@H](C(=O)N[C@@H](Cc1c[nH]c2ccccc12)C(=O)O)C(C)C` [Example 86, Ac--D--Dip--Leu--Asp--Ile--Val--Trp] (Ac-[dDip]LDIVW-OH), the half-inhibitory concentration (IC50) in test [1] came to 630 nM; in test [2], 97 nM.

For the compound `CC[C@H](C)[C@H](NC(=O)[C@H](CC(=O)O)NC(=O)[C@H](CC(C)C)NC(=O)[C@H](NC(=O)C(F)(F)F)C(c1ccccc1)c1ccccc1)C(=O)N[C@H](C(=O)N[C@@H](Cc1c[nH]c2ccccc12)C(=O)O)[C@@H](C)CC` [Example 39, CF3 CO--D--Dip--Leu--Asp--Ile--Ile--Trp] (Tfa-[dDip]LDIIW-OH), the 50% inhibitory concentration (IC50) in test [1] came out at 900 nM; in test [2], 250 nM. Take `CC[C@H](C)[C@H](NC(=O)[C@H](CC(=O)O)NC(=O)[C@H](CC(C)C)NC(=O)[C@@H](Cc1c(C)c(C)c(C)c(C)c1C)NC(C)=O)C(=O)N[C@H](C(=O)N[C@@H](Cc1c[nH]c2ccccc12)C(=O)O)[C@@H](C)CC` [Example 53, Ac--D--Pmp--Leu--Asp--Ile--Ile--Trp] (Ac-[X3]LDIIW-OH): the IC50 in test [1] worked out at 5500 nM; in test [2], 1500 nM. For `CC[C@H](C)[C@H](NC(=O)[C@H](CC(=O)O)NC(=O)[C@H](CC(C)C)NC(=O)[C@H](NC(=O)Cc1cccnc1)C(c1ccccc1)c1ccccc1)C(=O)N[C@H](C(=O)N[C@@H](Cc1c[nH]c2ccccc12)C(=O)O)[C@@H](C)CC` [Example 33, Pya--D--Dip--Leu--Asp--Ile--Ile--Trp] ({Acetyl(3-pyridyl)}-[dDip]LDIIW-OH), the IC50 in test [1] was 180 nM; in test [2], 5000 nM. `CC[C@H](C)[C@H](NC(=O)[C@H](CC(=O)O)NC(=O)[C@H](CC(C)C)NC(=O)[C@@H](Cc1ccccc1)NC(C)=O)C(=O)N[C@@H](C)C(=O)N[C@@H](Cc1c[nH]c2ccccc12)C(=O)O` [Example 82, Ac--D--Phe--Leu--Asp--Ile--Ala--Trp] (Ac-[dF]LDIAW-OH): the figures for the IC50 in test [1] and in test [2] were greater than 1000 nM and 8000 nM, respectively. Take `CC[C@H](C)[C@H](NC(=O)[C@H](CC(=O)O)NC(=O)[C@H](CCC(=O)O)NC(=O)[C@@H](Cc1ccccc1)NC(C)=O)C(=O)N[C@H](C(=O)N[C@@H](Cc1c[nH]c2ccccc12)C(=O)O)[C@@H](C)CC` [Example 9, Ac--D--Phe--Glu--Asp--Ile--Ile--Trp] (Ac-[dF]EDIIW-OH): the IC50 was found to be 1300 nM in test [1] and 650 nM in test [2]. For `CC[C@H](C)[C@H](NC(=O)[C@H](CC(=O)O)NC(=O)[C@H](NC(C)=O)C(c1ccccc1)c1ccccc1)C(=O)N[C@H](C(=O)N[C@@H](Cc1c[nH]c2ccccc12)C(=O)O)[C@@H](C)CC` [Example 94, Ac--D--Dip--Asp--Ile--Ile--Trp] (Ac-[dDip]DIIW-OH; C-terminus assumed), the half-inhibitory concentration (IC50) in test [1] is 250 nM; in test [2], greater than 1000 nM. With `CC[C@H](C)[C@H](NC(=O)[C@H](CC(=O)O)NC(=O)[C@H](CC(C)C)NC(=O)[C@H](NC(C)=O)C(c1ccccc1)c1ccccc1)C(=O)N[C@H](C(=O)N[C@@H](Cc1c[nH]c2ccccc12)C(N)=O)[C@@H](C)CC` [Example 24, Ac--D--Dip--Leu--Asp--Ile--Ile--Trp--NH2] (Ac-[dDip]LDIIW-NH2), the half-inhibitory concentration (IC50) in test [1] was found to be 5000 nM; in test [2], 320 nM. Consider `CC[C@H](C)[C@H](NC(=O)[C@H](CCCCN)NC(=O)[C@H](CC(C)C)NC(=O)[C@H](NC(C)=O)C(c1ccccc1)c1ccccc1)C(=O)N[C@H](C(=O)N[C@@H](Cc1c[nH]c2ccccc12)C(=O)O)[C@@H](C)CC` [Example 69, Ac--D--Dip--Leu--Lys--Ile--Ile--Trp] (Ac-[dDip]LKIIW-OH), for which the IC50 in test [1] was determined as 33 nM; in test [2], 480 nM. One may read the inhibition as how much of the control response was suppressed. For `CC[C@H](C)[C@H](NC(=O)[C@H](Cc1ccccc1)NC(=O)[C@H](CC(=O)O)NC(=O)[C@@H](Cc1ccccc1)NC(C)=O)C(=O)N[C@@H](Cc1c[nH]c2ccccc12)C(=O)O` [Example 93, Ac--D--Phe--Asp--Phe--Ile--Trp] (Ac-[dF]DFIW-OH), the inhibition at 10 µM stood at 64.7% in test [1] (@ 10 μM, read-out: Binding Assay % Inhibition at Receptor Subtypes ETB) and 37.4% in test [2] (@ 10 μM, read-out: Binding Assay % Inhibition at Receptor Subtypes ETA). As for `CC[C@H](C)[C@H](NC(=O)[C@H](CC(=O)O)NC(=O)[C@H](CC(C)C)NC(=O)[C@H](NC(=O)CC12CC3CC(CC(C3)C1)C2)C(c1ccccc1)c1ccccc1)C(=O)N[C@H](C(=O)N[C@@H](Cc1c[nH]c2ccccc12)C(=O)O)[C@@H](C)CC` [Example 35, Ada--D--Dip--Leu--Asp--Ile--Ile--Trp] ({Acetyl(1-adamantyl)}-[dDip]LDIIW-OH), the half-inhibitory concentration (IC50) in test [1] stood at 500 nM; in test [2], 4000 nM. For the compound `CC[C@H](C)[C@H](NC(=O)[C@H](Cc1ccccc1)NC(=O)[C@H](CC(C)C)NC(=O)[C@@H](Cc1ccccc1)NC(C)=O)C(=O)N[C@H](C(=O)N[C@@H](Cc1c[nH]c2ccccc12)C(=O)O)[C@@H](C)CC` [Example 67, Ac--D--Phe--Leu--Phe--Ile--Ile--Trp] (Ac-[dF]LFIIW-OH), in test [1], the IC50 came out at 35 nM. On the same count and under the same terms, as for `CC[C@H](C)[C@H](NC(=O)[C@H](CC(=O)O)NC(=O)[C@H](CC(C)C)NC(=O)[C@@H](Cc1ccccc1)NC(C)=O)C(=O)N[C@H](C(=O)N[C@@H](Cc1c[nH]c2ccccc12)C(=O)O)[C@@H](C)CC` [Example 1, Ac--D--Phe--Leu--Asp--Ile--Ile--Trp] (Ac-[dF]LDIIW-OH), the figure is 3300 nM; as for `CC[C@H](C)[C@H](NC(=O)[C@H](CC(=O)O)NC(=O)[C@H](CCCN)NC(=O)[C@@H](Cc1ccccc1)NC(C)=O)C(=O)N[C@H](C(=O)N[C@@H](Cc1c[nH]c2ccccc12)C(=O)O)[C@@H](C)CC` [Example 8, Ac--D--Phe--Orn--Asp--Ile--Ile--Trp] (Ac-[dF][Orn]DIIW-OH), 4000 nM. With `CC[C@H](C)[C@H](NC(=O)[C@H](CC(=O)O)NC(=O)[C@H](CC(C)C)NC(=O)[C@H](N)C(c1ccccc1)c1ccccc1)C(=O)N[C@H](C(=O)N[C@@H](Cc1c[nH]c2ccccc12)C(=O)O)[C@@H](C)CC` [Example 49, D--Dip--Leu--Asp--Ile--Ile--Trp] (H-[dDip]LDIIW-OH), the IC50 in test [2] was 2100 nM. Still for that read-out and setting: as for `CC[C@H](C)[C@H](NC(=O)[C@H](CC(=O)O)NC(=O)[C@H](CC(C)C)NC(=O)[C@@H](Cc1ccc(O)cc1)NC(C)=O)C(=O)N[C@H](C(=O)N[C@@H](Cc1c[nH]c2ccccc12)C(=O)O)[C@@H](C)CC` [Example 10, Ac--D--Tyr--Leu--Asp--Ile--Ile--Trp] (Ac-[dY]LDIIW-OH), the figure is 400 nM. Consider `CC[C@H](C)[C@H](NC(=O)[C@H](CC(=O)O)NC(=O)[C@@H](Cc1ccccc1)NC(=O)[C@@H](Cc1ccccc1)NC(C)=O)C(=O)N[C@H](C(=O)N[C@@H](Cc1c[nH]c2ccccc12)C(=O)O)[C@@H](C)CC` [Example 61, Ac--D--Phe--D--Phe--Asp--Ile--Ile--Trp] (Ac-[dF][dF]DIIW-OH), for which, in test [1], the IC50 was found to be 10 nM.

Regarding `CC[C@H](C)[C@H](NC(=O)[C@H](CC(=O)O)NC(=O)[C@H](Cc1ccccc1)NC(=O)[C@@H](Cc1ccccc1)NC(C)=O)C(=O)N[C@H](C(=O)N[C@@H](Cc1c[nH]c2ccccc12)C(=O)O)[C@@H](C)CC` [Example 60, Ac--D--Phe--Phe--Asp--Ile--Ile--Trp] (Ac-[dF]FDIIW-OH), the IC50 in test [1] worked out at 300 nM.
